# Source: patent US20200016188A1, “MODIFICATION OF THE PH AND OTHER PHYSICAL PROPERTIES OF NICOTINAMIDE ADENINE DINUCLEOTIDE (OXIDIZED FORM) TO ALLOW FOR ENHANCED STABILITY AND MULTIPLE DELIVERY SYSTEMS” (priority 2018, published 2020)
# Entries after “also recorded” stand apart in the source; their conditions may differ. Where two headings read alike, the source gives them in different places.
# Legend:
# [1] = pH testing of test substances (pH strips, probe and meter); assay type: physicochemical
# Protocol: PH testing was done by using both pH testing strips and a probe and meter for each test substance to determine its pH. Each test substance was dissolved in 150 ml distilled water then tested for its pH value. Where the test substance could not be tested because it was not water soluble, an art-recognized pH was used.
# PH testing was done by using both ph testing strips and a probe and meter for each test substance to determine its pH. Each test substance was dissolved in 150 ml distilled water then tested for its pH value.
# [2] = Two-week stability of compressed lozenge of NAD+ with a test substance, HPLC UV; conditions: for Observation when the composition was made: NAD+ with test substance, HPLC data could not be obtained
# Protocol: Preparations of nicotinamide adenine dinucleotide (oxidized form) were compounded. A compressed lozenge was created including 100 mg nicotinamide adenine dinucleotide (oxidized form) and 100 mg of a test substance. The powders were compressed in a tablet mold and released. Each test tablet was then placed in a white 75cc HDPE container that was sealed and removed from UV light for two weeks at room temperature.
# After a two week period, the compositions were tested by performing an HPLC UV.
# [3] = not tested, cited from earlier work; for (pH): Table 6, too viscous
# [4] = cited from earlier work
# [5] = Table 5, test substance dissolved in 150 ml distilled water
# [6] = anhydrous NAD+ with test substance, two weeks, HPLC UV versus NAD+ control
compound,measurement,setting,value
OC[C@@H](O)[C@@H](O)[C@H](O)[C@H](O)CO [Mannitol],(pH) Value,[1]; [5],6.7
Magnesium stearate,Degradation of NAD+ when formulated with the test substance by itself (words),[2]; [6],cause degradation of the NAD+
"[O]=[Mg] [Magnesium Oxide MgO, Magnesium oxide]",Degradation of NAD+ when formulated with the test substance by itself (words),[2]; [6],cause degradation of the NAD+
same,(pH) Value,[1]; [5],9.1
Sodium hydroxide [Sodium Hydroxide NaOH],Observation when the composition was made,[2],"bubbled, liquefied, turned yellow, and created heat"
OCc1ccccc1 [Benzyl alcohol],(pH) Value,"[1]; Table 6, test substance in 150 ml distilled water",6.9
same,(pH) Value,[1]; summary of Table 6,neutral
"[K+].[OH-] [Potassium Hydroxide KOH, Potassium hydroxide]",Observation when the composition was made,[2],"bubbled, liquefied, turned yellow, and created heat"
same,Degradation of NAD+ when formulated with the test substance by itself (words),[2]; [6],cause degradation of the NAD+
"O=C([O-])O.[Na+] [Sodium Bicarbonate Na2CO2, Sodium bicarbonate]",Degradation of NAD+ when formulated with the test substance by itself (words),[2]; [6],showed degradation shortly after creation of the lozenge tablet; also recorded: cause degradation of the NAD+
CCCCCCCCCCCCCCCCCC(=O)O [Stearic acid],Degradation of NAD+ when formulated with the test substance by itself (words),[2],cause degradation of the NAD+
"CC(=O)Oc1c(C)c(C)c2c(c1C)CCC(C)(CCC[C@H](C)CCC[C@H](C)CCCC(C)C)O2 (some centres unmarked) [Tocopherol acetates, Tocopherol acetate]",(pH) Value,[1]; summary of Table 6,neutral
same,(pH),[3],(pH) neutral
"[Mg+2].[OH-].[OH-] [Magnesium Hydroxide Mg(OH)2, Magnesium hydroxide]",Degradation of NAD+ when formulated with the test substance by itself (words),"[2]; anhydrous NAD+ with test substance, two weeks, HPLC UV versus NAD+ control, listed as Mg(OH)2",deemed effective
same,Degradation of NAD+ when formulated with the test substance by itself (words),"[2]; anhydrous NAD+ with test substance, two weeks, HPLC UV versus NAD+ control, listed as magnesium hydroxide",do not degrade NAD+; also recorded: provided for stable compositions of NAD+
OCC(O)CO [Glycerin],(pH) Value,[1]; summary of Table 6,neutral
same,(pH),[3],(pH) neutral
"OC[C@@H](O)[C@@H](O)[C@H](O)[C@@H](O)CO [70% Sorbitol, Sorbitol]",(pH) Value,[1]; summary of Table 6,neutral
same,(pH),[3],(pH) neutral
O=C1O[C@H]([C@@H](O)CO)C([O-])=C1O.[Na+] [Sodium ascorbate],Degradation of NAD+ when formulated with the test substance by itself (words),[2]; [6],positive results
same,Degradation of NAD+ when formulated with the test substance by itself (words),"[2]; anhydrous NAD+ with test substance, two weeks, HPLC UV versus NAD+ control, listed as sodium ascorbate",do not degrade NAD+
"O=C([O-])O.[K+] [Potassium Bicarbonate K2CO2, Potassium bicarbonate]",Degradation of NAD+ when formulated with the test substance by itself (words),[2]; [6],cause degradation of the NAD+
OC[C@@H](O)[C@H](O)[C@@H](O)CO [Xylitol],(pH) Value,[1]; [5],6.5
"[Cl-].[Na+] [Sodium Chloride NaCl, Sodium chloride]",Degradation of NAD+ when formulated with the test substance by itself (words),[2]; [6],positive results; also recorded: do not degrade NAD+
"O=P([O-])([O-])O.[Ca+2] [Calcium Phosphate Dibasic, Calcium phosphate dibasic]",Degradation of NAD+ when formulated with the test substance by itself (words),[2]; [6],did not degrade the NAD+; also recorded: little to no degradation; also recorded: do not degrade NAD+
same,Degradation of NAD+ when formulated with the test substance by itself (words),"[2]; anhydrous NAD+ with test substance, two weeks, HPLC UV versus NAD+ control, listed as CaHPO4",deemed effective
same,(pH) Value,[1]; [5],8.5
"NC(=O)c1ccc[n+]([C@@H]2O[C@H](COP(=O)([O-])OP(=O)(O)OC[C@H]3O[C@@H](n4cnc5c(N)ncnc54)[C@H](O)[C@@H]3O)[C@@H](O)[C@H]2O)c1 [NAD+, nicotinamide adenine dinucleotide (oxidized form)]",Time NAD+ can be stable,"[4]; aqueous solutions between pH 2-6, stored at −70° C.",up to 6 months
same,Time NAD+ is stable,[4]; fairly neutral aqueous solutions at 0° C.,up to 2 weeks
same,Time the stability of NAD+ will last,[4]; neutral or slightly acidic solutions stored at zero degrees Fahrenheit,up to 2 weeks
"OC[C@@H](O)[C@@H](O)CO [Erythitol, Erythritol]",(pH) Value,[1]; [5],6.3
"O=C([O-])[O-].[Mg+2] [Magnesium carbonate MgCO2, Magnesium carbonate]",Degradation of NAD+ when formulated with the test substance by itself (words),[2]; [6],did not degrade the NAD+; also recorded: little to no degradation; also recorded: do not degrade NAD+
Polysorbate 80,(pH) Value,[1]; summary of Table 6,neutral
same,(pH),[3],(pH) neutral
CCCCCCCCCCCCCCCC(=O)OC[C@H](O)[C@H]1OC(=O)C(O)=C1O [Ascorbyl palmitate],pH range,"[3]; Table 5, not water soluble, art-recognized pH",(pH) range 6.8-7.2
